PubChem BioAssay AID330 (DTP/NCI, 2004)
Several values for one entry are separate records, joined by “and”; a condition that tells them apart may be missing. Identical values can stand only once. Inconclusive results and toxic doses are left out. How the source made its calls: active means survival T/C of 150% or more; inactive means T/C below 125% in these data.

Test system: P388 leukemia ip, CD2F1 mice, survival T/C
Test: NCI In Vivo Anticancer Drug Screen. Data for tumor model P388 Leukemia (intraperitoneal) in CD2F1 (CDF1) mice
Conditions: endpoint: median survival time, higher = longer survival
Summary of the method: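 Mice carrying the transplanted tumor received test compound or vehicle. Survival was recorded in each group, and the value is the treated-group measurement divided by that of the vehicle-treated control group.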

[1] = dose: 100.0 mg/kg/injection, schedule: Q01DX001 (ip), vehicle: saline with Tween-80
[2] = dose: 200.0 mg/kg/injection, schedule: Q01DX001 (ip), vehicle: saline with Tween-80
[3] = dose: 400.0 mg/kg/injection, schedule: Q01DX001 (ip), vehicle: saline with Tween-80
[4] = dose: 60.0 mg/kg/injection, schedule: Q01DX005 (ip), vehicle: Klucel (hydroxypropylcellulose) (HPC)
[5] = dose: 120.0 mg/kg/injection, schedule: Q01DX005 (ip), vehicle: Klucel (hydroxypropylcellulose) (HPC)
[6] = dose: 240.0 mg/kg/injection, schedule: Q01DX005 (ip), vehicle: Klucel (hydroxypropylcellulose) (HPC)
[7] = dose: 50.0 mg/kg/injection, schedule: Q01DX005 (ip), vehicle: saline
[8] = dose: 100.0 mg/kg/injection, schedule: Q01DX005 (ip), vehicle: saline
[9] = dose: 200.0 mg/kg/injection, schedule: Q01DX005 (ip), vehicle: saline
[10] = dose: 50.0 mg/kg/injection, schedule: Q01DX005 (ip), vehicle: saline with Tween-80
[11] = dose: 100.0 mg/kg/injection, schedule: Q01DX005 (ip), vehicle: saline with Tween-80
[12] = dose: 200.0 mg/kg/injection, schedule: Q01DX005 (ip), vehicle: saline with Tween-80
[13] = dose: 50.0 mg/kg/injection, schedule: Q01DX005 (ip), vehicle: Klucel (hydroxypropylcellulose) (HPC)
[14] = dose: 100.0 mg/kg/injection, schedule: Q01DX005 (ip), vehicle: Klucel (hydroxypropylcellulose) (HPC)
[15] = dose: 200.0 mg/kg/injection, schedule: Q01DX005 (ip), vehicle: Klucel (hydroxypropylcellulose) (HPC)
[16] = dose: 60.0 mg/kg/injection, schedule: Q01DX005 (ip), vehicle: saline with Tween-80
[17] = dose: 120.0 mg/kg/injection, schedule: Q01DX005 (ip), vehicle: saline with Tween-80
[18] = dose: 240.0 mg/kg/injection, schedule: Q01DX005 (ip), vehicle: saline with Tween-80
[19] = dose: 25.0 mg/kg/injection, schedule: Q01DX005 (ip), vehicle: Klucel (hydroxypropylcellulose) (HPC)
[20] = dose: 50.0 mg/kg/injection, schedule: Q01DX009 (ip), vehicle: saline with Tween-80
[21] = dose: 100.0 mg/kg/injection, schedule: Q01DX009 (ip), vehicle: saline with Tween-80
[22] = dose: 200.0 mg/kg/injection, schedule: Q01DX009 (ip), vehicle: saline with Tween-80
[23] = dose: 12.5 mg/kg/injection, schedule: Q01DX009 (ip), vehicle: saline
[24] = dose: 25.0 mg/kg/injection, schedule: Q01DX009 (ip), vehicle: saline with Tween-80

Measured: T/C

CCC12C=CCN3CCC4(c5cc(C6c7[nH]c8ccccc8c7CCN7CCCCC67)c(OC)cc5N(C)C4C(O)(C(=O)OC)C1OC(C)=O)C32 (configuration not stated)
inactive: dose: 0.06 mg/kg/injection, schedule: Q01DX009 (ip), vehicle: Klucel (hydroxypropylcellulose) (HPC) 115 % of control | dose: 0.13 mg/kg/injection, schedule: Q01DX009 (ip), vehicle: Klucel (hydroxypropylcellulose) (HPC) 122 % of control | dose: 0.13 mg/kg/injection, schedule: Q04DX003 (ip), vehicle: water 95 % of control | dose: 0.25 mg/kg/injection, schedule: Q01DX009 (ip), vehicle: Klucel (hydroxypropylcellulose) (HPC) 123 % of control | dose: 0.25 mg/kg/injection, schedule: Q04DX003 (ip), vehicle: water 112 % of control | dose: 0.5 mg/kg/injection, schedule: Q04DX003 (ip), vehicle: water 113 % of control | dose: 0.67 mg/kg/injection, schedule: Q01DX009 (ip), vehicle: Klucel (hydroxypropylcellulose) (HPC) 103 % of control | dose: 1.0 mg/kg/injection, schedule: Q04DX003 (ip), vehicle: water 103 % of control | dose: 1.5 mg/kg/injection, schedule: Q01DX009 (ip), vehicle: Klucel (hydroxypropylcellulose) (HPC) 105 % of control | dose: 2.0 mg/kg/injection, schedule: Q04DX003 (ip), vehicle: water 91 % of control

COc1ccc2c3c1OC1C(OC)(OC)C=C[C@@]4(Br)[C@@H](C2)N(C)CC[C@]314 (some centres not stated)
inactive: [1] 109 % of control | [2] 106 % of control | [3] 123 % of control

Nc1nc(-c2ccc3ccccc3c2)cc(-c2cc(-c3ccc4ccccc4c3)nc(N)n2)n1
inactive: [4] 96 % of control | [5] 93 % of control | [6] 91 % of control

O=C(O)c1ccc2c(c1Sc1ccc(Cl)cc1)C(=O)c1ccccc1C2=O
inactive: [4] 100 % of control | [5] 90 % of control | [6] 99 % of control

CC(=O)ON(C(=O)c1ccc([N+](=O)[O-])cc1)c1ccc(C=O)cc1
inactive: [1] 102 % of control | [2] 101 % of control

CN(C)CCCNC(=O)c1nn(-c2ccccc2)c2c1N(C)S(=O)(=O)c1ccccc1-2
inactive: [7] 92 % of control | [8] 99 % of control | [9] 101 % of control

CSc1nc2n(Cc3cn(C)c(=O)n(C)c3=O)cc(C)cc-2c(=O)n1
inactive: [1] 96 % of control | [2] 94 % of control | [3] 94 % of control

CC[N+](CC)(CC)c1ccccc1
inactive: dose: 6.25 mg/kg/injection, schedule: Q04DX002 (ip), vehicle: saline 105 % of control | dose: 12.5 mg/kg/injection, schedule: Q04DX002 (ip), vehicle: saline 111 % of control | dose: 25.0 mg/kg/injection, schedule: Q04DX002 (ip), vehicle: saline 100 % of control and 104 % of control

COc1cc(/C=N/N2CC(=O)N(c3ccccc3)CC2=O)cc(OC)c1
inactive: dose: 6.25 mg/kg/injection, schedule: Q01DX005 (ip), vehicle: saline with Tween-80 97 % of control | dose: 12.5 mg/kg/injection, schedule: Q01DX005 (ip), vehicle: saline with Tween-80 100 % of control | dose: 25.0 mg/kg/injection, schedule: Q01DX005 (ip), vehicle: saline with Tween-80 100 % of control

COc1ccc2nc(CC(=N)c3ccc(N(C)C)cc3)ccc2c1
inactive: [10] 89 % of control | [11] 89 % of control | [12] 92 % of control

O=C1C=C(N2CCN(CCO)CC2)C(=O)c2c(N3CCN(CCO)CC3)cc(N3CCN(CCO)CC3)nc21
inactive: [7] 97 % of control | [8] 93 % of control | [9] 93 % of control

O=C1N(Cc2ccccc2)CCN1Cc1ccccc1
inactive: [13] 95 % of control | [14] 94 % of control | [15] 104 % of control

O=C1C(=O)c2ncccc2-c2ncccc21
inactive: dose: 7.5 mg/kg/injection, schedule: Q01DX005 (ip), vehicle: saline with Tween-80 113 % of control | dose: 15.0 mg/kg/injection, schedule: Q01DX005 (ip), vehicle: saline with Tween-80 95 % of control

CCOC(OCC)C(N)=O
inactive: [10] 105 % of control | [11] 109 % of control | [12] 100 % of control

CCOc1cccc2c1C(=O)c1cccc(OCC)c1C2=O
inactive: dose: 100.0 mg/kg/injection, schedule: Q04DX003 (ip), vehicle: saline with Tween-80 109 % of control | dose: 200.0 mg/kg/injection, schedule: Q04DX003 (ip), vehicle: saline with Tween-80 104 % of control | dose: 400.0 mg/kg/injection, schedule: Q04DX003 (ip), vehicle: saline with Tween-80 100 % of control

CCN1C(=NCCO)NS(=O)(=O)c2ccccc21
inactive: [16] 95 % of control | [17] 106 % of control | [18] 99 % of control

CC1(C)N=C(N)N=C(N)N1c1ccc(C(N)=O)cc1
inactive: [19] 100 % of control and 101 % of control | [13] 99 % of control and 100 % of control | [14] 101 % of control and 98 % of control

COc1c2c(c3c(c1CCC(=O)O)OC(C)(C)C=C3)OC(C)(C)C=C2
inactive: [13] 102 % of control | [14] 100 % of control | [15] 102 % of control

Cc1ccccc1N1C(=O)CC2(CCCC2)C1=O
inactive: [20] 97 % of control | [21] 113 % of control | [22] 94 % of control

CC(=O)c1ccc2c(c1)N(CCCN(C)C)c1ccccc1S2
inactive: dose: 3.12 mg/kg/injection, schedule: Q01DX009 (ip), vehicle: saline 94 % of control and 97 % of control | dose: 6.25 mg/kg/injection, schedule: Q01DX009 (ip), vehicle: saline 93 % of control and 94 % of control | [23] 103 % of control and 93 % of control | dose: 50.0 mg/kg/injection, schedule: Q01DX009 (ip), vehicle: saline 101 % of control | dose: 100.0 mg/kg/injection, schedule: Q01DX009 (ip), vehicle: saline 116 % of control

C=C(C)C(=NC(C)(C)C)N(C(C)C)C(C)C
inactive: dose: 12.5 mg/kg/injection, schedule: Q01DX005 (ip), vehicle: Klucel (hydroxypropylcellulose) (HPC) 102 % of control | dose: 12.5 mg/kg/injection, schedule: Q01DX009 (ip), vehicle: saline with Tween-80 89 % of control | [23] 102 % of control | [19] 96 % of control | [24] 97 % of control | dose: 25.0 mg/kg/injection, schedule: Q01DX009 (ip), vehicle: saline 101 % of control | [13] 98 % of control | [20] 100 % of control and 120 % of control | [21] 108 % of control

COc1ccc2[nH]c(C)c(CN(C(C)=O)C(C)=O)c(=O)c2c1
inactive: [16] 103 % of control | [17] 112 % of control | [18] 86 % of control

CCOC(=O)/C(C=NC1CC(N=C/C(C(=O)OCC)=C(\C)O)CC(N=C/C(C(=O)OCC)=C(\C)O)C1)=C(/C)O (configuration not stated)
inactive: dose: 6.25 mg/kg/injection, schedule: Q01DX009 (ip), vehicle: Klucel (hydroxypropylcellulose) (HPC) 106 % of control | dose: 12.5 mg/kg/injection, schedule: Q01DX009 (ip), vehicle: Klucel (hydroxypropylcellulose) (HPC) 103 % of control | dose: 25.0 mg/kg/injection, schedule: Q01DX009 (ip), vehicle: Klucel (hydroxypropylcellulose) (HPC) 97 % of control | dose: 50.0 mg/kg/injection, schedule: Q01DX009 (ip), vehicle: Klucel (hydroxypropylcellulose) (HPC) 93 % of control

NC1=NC(O)C=C1 (configuration not stated)
inactive: dose: 12.5 mg/kg/injection, schedule: Q01DX005 (ip), vehicle: saline 105 % of control | dose: 25.0 mg/kg/injection, schedule: Q01DX005 (ip), vehicle: saline 107 % of control

COc1c2c(c(N3CCCC3)c3c1C(=O)c1ccccc1C3=O)C(=O)CCC2
inactive: [1] 100 % of control | [2] 105 % of control | [3] 94 % of control

COc1cc2ccnc(/C=N\NC(N)=S)c2cc1OC
inactive: [24] 98 % of control | [20] 101 % of control | [21] 107 % of control | [22] 118 % of control
